For 8 compounds, GI50 and TGI results are on record in PubChem BioAssay (NCI).

SMILES strings stand for the structures.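 Growth conditions: 96-well plates. Treatment: test compound, 48 hours, 5 concentrations. Analysis: linear interpolation between bracketing concentrations; unreached endpoints set to highest concentration. GI50 = concentration required for 50% inhibition of growth. TGI marks complete inhibition of growth.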

Among the test systems are CCRF-CEM leukemia; COLO 205 colon; DU-145 prostate; MOLT-4 leukemia; NCI-H23 lung; NCI-H460 lung; NCI/ADR-RES ovarian; SF-268 CNS; SNB-19 CNS; SW-620 colon.
Holding throughout (test): inhibition of tumour cell growth, NCI panel, 48 h

As to `O=C(Nc1ccccc1O)c1ccc(CNC(=O)c2sccc2Nc2ccnc(C(F)(F)F)c2)cc1`, the GI50 in the test on CCRF-CEM leukemia is 1.01 µM; with COLO 205 colon, 5.38 µM; in the test on DU-145 prostate, 6.1 µM; in the test with MOLT-4 leukemia, 1.78 µM; in the test with NCI-H23 lung, 5.73 µM; in the test with NCI-H460 lung it was 5.19 µM. Also, the GI50 is 4.67 µM in the test on NCI/ADR-RES ovarian, 7.04 µM with SF-268 CNS, 13.2 µM in the test with SNB-19 CNS and 5.36 µM with SW-620 colon. The TGI with CCRF-CEM leukemia was above 100 µM; in the test on COLO 205 colon, 19.2 µM; with DU-145 prostate it was 21 µM; in the test with MOLT-4 leukemia, 32.7 µM; with NCI-H23 lung, 41.2 µM; with NCI-H460 lung, 21.4 µM. Further, the TGI in the test with NCI/ADR-RES ovarian stood at 46.9 µM; in the test with SF-268 CNS, 27.7 µM; in the test on SNB-19 CNS, 31.1 µM; in the test with SW-620 colon, 20.4 µM.
For `COc1ccc2c(c1)cn1c3ccc(O)cc3[nH]c(=O)c21`, the GI50 with CCRF-CEM leukemia was 0.149 µM; in the test with COLO 205 colon it was 0.409 µM; with DU-145 prostate it was 0.234 µM; in the test with MOLT-4 leukemia, 0.316 µM; in the test on NCI-H23 lung it was 0.292 µM; with NCI-H460 lung, 0.138 µM. In addition, the GI50 is 0.187 µM in the test with NCI/ADR-RES ovarian, 0.136 µM with SF-268 CNS, 0.203 µM in the test with SNB-19 CNS and 0.043 µM in the test with SW-620 colon. Moreover, the TGI with CCRF-CEM leukemia stood at 4.66 µM; in the test on COLO 205 colon, 2.83 µM; in the test with DU-145 prostate, 8.74 µM; with MOLT-4 leukemia, 6.95 µM; with NCI-H23 lung it was 15.5 µM; with NCI-H460 lung it was 1.62 µM. Besides, the TGI came out at 11.8 µM with NCI/ADR-RES ovarian, 19.1 µM in the test with SF-268 CNS, 19.5 µM in the test with SNB-19 CNS and 2.55 µM in the test with SW-620 colon.
`COc1ccc(-c2nnc(N3CCN(C(=O)CN4CCN(c5ccc(Cl)cc5)CC4)CC3)nc2-c2ccc(OC)cc2)cc1`: the GI50 in the test on CCRF-CEM leukemia was 48 µM; with COLO 205 colon it was 16.9 µM; in the test with DU-145 prostate it was above 100 µM; in the test on MOLT-4 leukemia it was 6.53 µM; with NCI-H23 lung it was 24.4 µM; with NCI-H460 lung, 14.4 µM. Moreover, the GI50 in the test on NCI/ADR-RES ovarian is 20.7 µM; with SF-268 CNS it was above 100 µM; with SNB-19 CNS, 40.1 µM; in the test with SW-620 colon it was 57.9 µM. Also, the TGI in the test with CCRF-CEM leukemia, in the test on COLO 205 colon, in the test with DU-145 prostate, with MOLT-4 leukemia, in the test with NCI-H23 lung and in the test with NCI-H460 lung was above 100 µM throughout. Moreover, the TGI in the test on NCI/ADR-RES ovarian, in the test with SF-268 CNS, with SNB-19 CNS and with SW-620 colon was above 100 µM throughout.
In the case of `C[C@]12C3CC[C@@]4(CO)C[C@]3(CCC1[C@](C)(C(=O)O)CC[C@@H]2O)CC4=O` (stereo not given in full), the GI50 with CCRF-CEM leukemia, with COLO 205 colon, in the test on DU-145 prostate, in the test on MOLT-4 leukemia, in the test on NCI-H23 lung and in the test with NCI-H460 lung was above 100 µM throughout. Besides, the GI50 with NCI/ADR-RES ovarian, with SF-268 CNS, in the test on SNB-19 CNS and in the test with SW-620 colon was above 100 µM throughout. For the same compound, the TGI in the test with CCRF-CEM leukemia, in the test with COLO 205 colon, with DU-145 prostate, with MOLT-4 leukemia, in the test on NCI-H23 lung and in the test on NCI-H460 lung was above 100 µM throughout. For the same compound, the TGI with NCI/ADR-RES ovarian, in the test on SF-268 CNS, with SNB-19 CNS and with SW-620 colon was above 100 µM each time.
With `C1=C(c2ccccc2)SC=C(c2ccccc2)S1`, the TGI in the test on CCRF-CEM leukemia, with COLO 205 colon, in the test with DU-145 prostate, in the test on MOLT-4 leukemia, in the test on NCI-H23 lung and in the test with NCI-H460 lung was above 100 µM in each case. The TGI in the test with NCI/ADR-RES ovarian is 64 µM; with SF-268 CNS, above 100 µM; in the test on SNB-19 CNS it was above 100 µM; with SW-620 colon, above 100 µM.
As to `COc1ccc(/C=C(/C)[N+](=O)[O-])cc1`, the TGI with CCRF-CEM leukemia worked out at 4.48 µM; in the test on COLO 205 colon, 4.3 µM; in the test with DU-145 prostate it was 6.26 µM; in the test with MOLT-4 leukemia it was 5.34 µM; in the test on NCI-H23 lung, 4.35 µM; with NCI-H460 lung it was 5.22 µM. Moreover, the TGI was 13.6 µM in the test on NCI/ADR-RES ovarian, 9.42 µM with SF-268 CNS, 17.9 µM with SNB-19 CNS and above 20.6 µM with SW-620 colon.
For `COc1cc(-c2cc(/C=C3\C(=O)Nc4ccccc43)[nH]n2)cc(OC)c1OC`, the GI50 in the test on CCRF-CEM leukemia was 2.28 µM; in the test with COLO 205 colon it was 2.47 µM; with DU-145 prostate, 4.35 µM; in the test with MOLT-4 leukemia, 2.45 µM; in the test with NCI-H23 lung, 2.78 µM; with NCI-H460 lung it was 4.35 µM. The GI50 in the test on NCI/ADR-RES ovarian was 2.33 µM; with SF-268 CNS it was 3.76 µM; in the test with SNB-19 CNS it was 4.13 µM; in the test with SW-620 colon it was 3.33 µM. The TGI in the test with CCRF-CEM leukemia was 6.96 µM; with COLO 205 colon, 7.02 µM; in the test on DU-145 prostate, 15.1 µM; in the test with MOLT-4 leukemia it was 6.71 µM; with NCI-H23 lung, 8.95 µM; in the test on NCI-H460 lung it was 19 µM. In addition, the TGI is 6.67 µM in the test on NCI/ADR-RES ovarian, 17.2 µM with SF-268 CNS, 32.5 µM with SNB-19 CNS and 18.9 µM with SW-620 colon.
`O=C(Nc1cccc(O)c1)c1cccc(NC2=C(Cl)C(=O)N(Cc3ccccc3)C2=O)c1`: the GI50 is 0.513 µM with CCRF-CEM leukemia; 27.4 µM with COLO 205 colon; 3.61 µM with DU-145 prostate; 1.04 µM in the test with MOLT-4 leukemia; 20.6 µM with NCI-H23 lung; 36.8 µM with NCI-H460 lung. The GI50 is 19.7 µM in the test on NCI/ADR-RES ovarian, 21.8 µM in the test with SF-268 CNS, 18.8 µM with SNB-19 CNS and 6.53 µM with SW-620 colon. In addition, the TGI was above 100 µM in the test with CCRF-CEM leukemia; 67 µM with COLO 205 colon; 16 µM in the test on DU-145 prostate; above 100 µM in the test on MOLT-4 leukemia; 35.8 µM in the test with NCI-H23 lung; above 100 µM with NCI-H460 lung. Also, the TGI with NCI/ADR-RES ovarian worked out at 37 µM; with SF-268 CNS it was 54.2 µM; in the test with SNB-19 CNS, 41.4 µM; with SW-620 colon it was 29.9 µM.
